The values below come from ChEMBL document CHEMBL5338767, “A Molecular Toolbox of Positron Emission Tomography Tracers for General Anesthesia Mechanism Research” (J Med Chem, 2023).

Data set [1] in a line: Lipophilicity, logP of the compound. Conditions: octanol/water.
Data set [2] can be described thus: Dissociation constant, pKa of the compound. It is filed as physicochemical.
Data set [3] has as its target Neuronal acetylcholine receptor; alpha6/beta2 (Homo sapiens, UniProt P17787+Q15825). The experiment in a line: Binding affinity to nACh alpha6beta2 receptor (unknown origin) assessed as inhibition constant. It is filed as protein-complex assay.
Data set [4] has as its target T1, Kappa-type opioid receptor (Homo sapiens, UniProt P41145). The experiment in a line: Binding affinity to kappa opioid receptor (unknown origin) assessed as inhibition constant.
Data set [5] in a line: Lipophilicity, logD of compound at pH 7. Conditions: buffer.
In data set [6] the target is T2, Gamma-aminobutyric acid receptor subunit alpha-5 (Homo sapiens, UniProt P31644).
T2 sequence (P31644 whole entry): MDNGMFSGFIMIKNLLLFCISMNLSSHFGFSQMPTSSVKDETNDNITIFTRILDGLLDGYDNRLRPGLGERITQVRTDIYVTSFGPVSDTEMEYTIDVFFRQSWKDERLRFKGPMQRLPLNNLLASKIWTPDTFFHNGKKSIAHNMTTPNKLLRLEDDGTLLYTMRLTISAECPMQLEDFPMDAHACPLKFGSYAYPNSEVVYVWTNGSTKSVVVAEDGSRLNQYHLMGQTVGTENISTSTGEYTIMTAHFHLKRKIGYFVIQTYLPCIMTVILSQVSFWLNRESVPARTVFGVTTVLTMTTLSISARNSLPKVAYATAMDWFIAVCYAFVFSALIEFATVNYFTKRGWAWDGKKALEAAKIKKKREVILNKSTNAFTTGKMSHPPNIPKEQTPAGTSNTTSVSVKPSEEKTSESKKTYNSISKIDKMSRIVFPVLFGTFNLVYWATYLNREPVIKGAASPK
Put plainly: Binding affinity to GABAa alpha5 (unknown origin) assessed as inhibition constant.

Data set [7] can be described thus: Lipophilicity, logD of compound at pH 7.4. It is filed as physicochemical. Conditions: buffer.
The target of data set [8] is Glutamate NMDA receptor; GRIN1/GRIN2A (Homo sapiens, UniProt Q05586+Q12879). The experiment in a line: Binding affinity to GluN1/GluN2A receptor (unknown origin) assessed as inhibition constant. Format: protein-complex assay.
Data set [9] can be described thus: Adrenal to liver ratio in rat measured at 60 mins. It is filed as ADME, tissue-based. To be noted: 1 h.
For data set [10], the target named is T3, Gamma-aminobutyric acid receptor subunit alpha-1 (Homo sapiens, UniProt P14867).
T3 sequence (P14867 whole entry): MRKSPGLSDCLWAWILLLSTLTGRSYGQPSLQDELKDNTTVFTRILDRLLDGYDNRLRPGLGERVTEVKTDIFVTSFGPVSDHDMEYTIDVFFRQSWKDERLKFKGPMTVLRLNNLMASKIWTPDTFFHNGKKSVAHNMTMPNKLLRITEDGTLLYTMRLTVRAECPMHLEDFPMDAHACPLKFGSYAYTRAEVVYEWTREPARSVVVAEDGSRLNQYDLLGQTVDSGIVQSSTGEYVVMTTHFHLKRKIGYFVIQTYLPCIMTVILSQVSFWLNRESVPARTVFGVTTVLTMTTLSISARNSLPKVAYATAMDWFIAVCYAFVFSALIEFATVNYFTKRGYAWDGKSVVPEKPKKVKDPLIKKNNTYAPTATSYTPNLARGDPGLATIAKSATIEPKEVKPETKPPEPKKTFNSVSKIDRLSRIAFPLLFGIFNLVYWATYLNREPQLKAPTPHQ
Put plainly: Binding affinity to GABAa alpha1 (unknown origin) assessed as inhibition constant.

Data set [11] addresses T4, Gamma-aminobutyric acid receptor subunit alpha-2 (Homo sapiens, UniProt P47869).
T4 sequence (P47869 whole entry): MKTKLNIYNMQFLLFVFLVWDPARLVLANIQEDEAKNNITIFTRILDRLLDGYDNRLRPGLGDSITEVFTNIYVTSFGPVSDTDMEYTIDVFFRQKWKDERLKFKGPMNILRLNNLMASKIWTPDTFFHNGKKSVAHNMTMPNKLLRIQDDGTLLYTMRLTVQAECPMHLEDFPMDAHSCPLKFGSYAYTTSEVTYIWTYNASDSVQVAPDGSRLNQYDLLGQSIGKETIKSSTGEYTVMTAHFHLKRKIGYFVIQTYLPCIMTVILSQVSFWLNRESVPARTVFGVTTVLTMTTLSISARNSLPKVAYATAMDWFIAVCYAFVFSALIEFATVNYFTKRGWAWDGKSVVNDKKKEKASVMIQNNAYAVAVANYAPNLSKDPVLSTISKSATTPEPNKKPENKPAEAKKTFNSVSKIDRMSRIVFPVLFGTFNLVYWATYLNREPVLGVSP
The experiment in a line: Binding affinity to GABAa alpha2 (unknown origin) assessed as inhibition constant.

Data set [12] concerns the target T5, Gamma-aminobutyric acid receptor subunit alpha-3 (Homo sapiens, UniProt P34903).
T5 sequence (P34903 whole entry): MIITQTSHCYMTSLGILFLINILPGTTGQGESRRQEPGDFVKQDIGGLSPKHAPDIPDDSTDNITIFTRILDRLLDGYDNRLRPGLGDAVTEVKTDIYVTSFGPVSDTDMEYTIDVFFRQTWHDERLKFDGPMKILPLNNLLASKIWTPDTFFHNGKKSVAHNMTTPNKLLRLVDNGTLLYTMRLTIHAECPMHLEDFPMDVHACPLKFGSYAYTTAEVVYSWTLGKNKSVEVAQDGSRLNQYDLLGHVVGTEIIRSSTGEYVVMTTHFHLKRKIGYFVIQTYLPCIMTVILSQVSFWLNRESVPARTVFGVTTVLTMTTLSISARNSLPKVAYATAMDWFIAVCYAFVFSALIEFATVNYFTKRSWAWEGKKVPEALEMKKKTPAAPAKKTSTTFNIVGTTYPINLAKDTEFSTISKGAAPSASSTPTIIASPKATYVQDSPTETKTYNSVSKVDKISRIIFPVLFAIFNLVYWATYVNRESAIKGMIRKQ
The experiment in a line: Binding affinity to GABAa alpha3 (unknown origin) assessed as inhibition constant.

Data set [13] is described as follows: Binding affinity to GABA/BZ receptor (unknown origin) assessed as inhibition constant. On the set-up: species or system Homo sapiens.
Data set [14] is described as follows: Drug distribution in Sprague-Dawley rat liver at 1 mg/kg, iv measured at 10 mins in presence of ETO. It is filed as ADME, organism-based. To be noted: in vivo.
The nature of data set [15]: Drug distribution in Sprague-Dawley rat adrenal gland at 1 mg/kg, iv measured at 10 mins in presence of ETO. Conditions: in vivo. Format: ADME, organism-based.
Data set [16] is described as follows: Stability in Sprague-Dawley rat plasma assessed as parent compound remaining measured after 10 mins. Format: ADME, cell-free. Conditions: read-out: Stability.
Data set [17] is described as follows: Stability in Sprague-Dawley rat plasma assessed as parent compound remaining measured after 30 mins. Format: ADME, cell-free. Conditions: read-out: Stability.
Data set [18] is described as follows: Stability in Sprague-Dawley rat plasma assessed as parent compound remaining measured after 60 mins. It is filed as ADME, cell-free. To be noted: read-out: Stability.
The nature of data set [19]: Selectivity ratio of Ki for kappa opioid receptor (unknown origin) for Ki for mu opioid receptor (unknown origin).
The nature of data set [20]: Selectivity ratio of Ki for kappa opioid receptor (unknown origin) for Ki for delta opioid receptor (unknown origin).
The next data set concerns the target Mu-type opioid receptor (Homo sapiens, UniProt P35372).
Data set [21] addresses T1, Kappa-type opioid receptor. The experiment in a line: Binding affinity to kappa opioid receptor (unknown origin).
A short description of data set [22]: Half life in rhesus monkey. It is filed as ADME, Macaca mulatta. To be noted: in vivo.
A short description of data set [23]: Drug distribution in rhesus monkey temporal cortex assessed as dissociation constant. Format: ADME, tissue-based, Macaca mulatta.
The nature of data set [24]: Drug distribution in rhesus monkey temporal cortex assessed as maximum binding. It is filed as ADME, tissue-based, Macaca mulatta.
The nature of data set [25]: Drug distribution in rhesus monkey striatum assessed as maximum binding. It is filed as ADME, tissue-based, Macaca mulatta.

Sequence of Glutamate NMDA receptor; GRIN1/GRIN2A (Q12879 whole entry, other chains not shown): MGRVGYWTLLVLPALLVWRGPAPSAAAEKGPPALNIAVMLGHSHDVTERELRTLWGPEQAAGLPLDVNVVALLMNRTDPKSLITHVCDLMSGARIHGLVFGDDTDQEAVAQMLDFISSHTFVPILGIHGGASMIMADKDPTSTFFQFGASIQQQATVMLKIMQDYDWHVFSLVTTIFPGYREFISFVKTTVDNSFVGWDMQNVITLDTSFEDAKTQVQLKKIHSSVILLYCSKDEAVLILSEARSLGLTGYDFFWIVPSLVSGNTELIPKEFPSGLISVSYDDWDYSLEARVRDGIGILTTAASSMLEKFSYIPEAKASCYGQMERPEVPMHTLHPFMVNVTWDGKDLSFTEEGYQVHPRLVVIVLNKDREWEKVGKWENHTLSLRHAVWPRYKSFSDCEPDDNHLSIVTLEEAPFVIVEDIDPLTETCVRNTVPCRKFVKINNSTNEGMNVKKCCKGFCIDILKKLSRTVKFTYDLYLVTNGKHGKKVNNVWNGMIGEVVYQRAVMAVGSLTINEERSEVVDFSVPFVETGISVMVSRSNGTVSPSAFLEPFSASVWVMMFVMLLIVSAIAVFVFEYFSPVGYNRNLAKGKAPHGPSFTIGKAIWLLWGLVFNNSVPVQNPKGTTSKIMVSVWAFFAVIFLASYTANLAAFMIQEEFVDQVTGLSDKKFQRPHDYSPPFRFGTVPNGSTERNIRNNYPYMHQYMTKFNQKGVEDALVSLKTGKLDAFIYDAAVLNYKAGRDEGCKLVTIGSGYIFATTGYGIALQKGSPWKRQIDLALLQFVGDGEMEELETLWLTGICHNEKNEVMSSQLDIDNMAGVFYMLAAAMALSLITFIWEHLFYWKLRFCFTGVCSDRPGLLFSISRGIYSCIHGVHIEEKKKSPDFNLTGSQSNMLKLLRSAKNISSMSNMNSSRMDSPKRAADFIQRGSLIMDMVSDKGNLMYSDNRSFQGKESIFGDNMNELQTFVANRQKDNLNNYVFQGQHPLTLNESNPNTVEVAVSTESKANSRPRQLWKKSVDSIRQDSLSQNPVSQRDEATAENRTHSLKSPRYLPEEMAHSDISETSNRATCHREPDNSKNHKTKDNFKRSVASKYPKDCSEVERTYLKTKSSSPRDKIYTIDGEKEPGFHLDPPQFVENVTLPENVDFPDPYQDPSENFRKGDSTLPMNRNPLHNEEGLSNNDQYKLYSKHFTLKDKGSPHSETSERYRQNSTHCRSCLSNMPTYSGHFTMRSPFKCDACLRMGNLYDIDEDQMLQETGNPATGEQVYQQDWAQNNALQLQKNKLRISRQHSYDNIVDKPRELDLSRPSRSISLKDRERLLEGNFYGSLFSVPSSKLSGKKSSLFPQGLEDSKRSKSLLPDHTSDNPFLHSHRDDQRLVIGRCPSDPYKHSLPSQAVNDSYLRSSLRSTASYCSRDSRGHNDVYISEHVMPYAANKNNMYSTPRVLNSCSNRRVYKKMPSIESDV
T1 sequence (P41145 whole entry): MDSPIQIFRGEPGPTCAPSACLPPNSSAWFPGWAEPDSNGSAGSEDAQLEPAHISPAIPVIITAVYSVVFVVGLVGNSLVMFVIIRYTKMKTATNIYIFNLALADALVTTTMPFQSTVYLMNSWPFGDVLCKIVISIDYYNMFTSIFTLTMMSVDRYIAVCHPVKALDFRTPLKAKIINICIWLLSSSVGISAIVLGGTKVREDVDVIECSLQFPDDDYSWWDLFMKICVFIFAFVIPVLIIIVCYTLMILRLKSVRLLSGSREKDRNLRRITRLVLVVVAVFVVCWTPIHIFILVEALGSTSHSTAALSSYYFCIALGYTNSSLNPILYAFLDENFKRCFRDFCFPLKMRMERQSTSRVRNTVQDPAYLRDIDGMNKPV
Sequence of Neuronal acetylcholine receptor; alpha6/beta2 (P17787 whole entry): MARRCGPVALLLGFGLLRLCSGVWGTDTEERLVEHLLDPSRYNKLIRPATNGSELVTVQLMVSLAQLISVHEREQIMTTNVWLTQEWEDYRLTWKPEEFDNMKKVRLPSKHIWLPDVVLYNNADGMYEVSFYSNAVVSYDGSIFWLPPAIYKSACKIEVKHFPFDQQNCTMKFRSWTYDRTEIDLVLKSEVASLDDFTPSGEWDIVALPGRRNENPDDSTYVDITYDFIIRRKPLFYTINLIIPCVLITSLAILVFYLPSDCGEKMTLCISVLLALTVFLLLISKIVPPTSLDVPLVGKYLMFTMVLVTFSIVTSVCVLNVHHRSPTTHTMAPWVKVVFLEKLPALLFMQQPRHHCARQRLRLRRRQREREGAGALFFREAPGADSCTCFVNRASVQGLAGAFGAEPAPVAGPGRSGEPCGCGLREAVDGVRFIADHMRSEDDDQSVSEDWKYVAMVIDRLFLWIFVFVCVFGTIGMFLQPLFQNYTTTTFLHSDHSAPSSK
Sequence of Neuronal acetylcholine receptor; alpha6/beta2 (Q15825 whole entry): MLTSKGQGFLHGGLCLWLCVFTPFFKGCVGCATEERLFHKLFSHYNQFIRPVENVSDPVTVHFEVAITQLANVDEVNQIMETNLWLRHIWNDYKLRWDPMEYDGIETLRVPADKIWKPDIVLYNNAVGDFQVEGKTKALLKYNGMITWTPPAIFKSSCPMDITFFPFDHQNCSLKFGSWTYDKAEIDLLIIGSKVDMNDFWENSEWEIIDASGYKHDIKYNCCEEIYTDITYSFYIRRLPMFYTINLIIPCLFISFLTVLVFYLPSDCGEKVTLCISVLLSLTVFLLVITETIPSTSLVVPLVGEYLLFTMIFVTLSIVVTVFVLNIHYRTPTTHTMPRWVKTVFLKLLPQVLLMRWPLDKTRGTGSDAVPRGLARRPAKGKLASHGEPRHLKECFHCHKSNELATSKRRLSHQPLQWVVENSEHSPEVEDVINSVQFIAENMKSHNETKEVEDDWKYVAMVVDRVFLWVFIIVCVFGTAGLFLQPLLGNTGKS
Sequence of Mu-type opioid receptor (P35372 whole entry): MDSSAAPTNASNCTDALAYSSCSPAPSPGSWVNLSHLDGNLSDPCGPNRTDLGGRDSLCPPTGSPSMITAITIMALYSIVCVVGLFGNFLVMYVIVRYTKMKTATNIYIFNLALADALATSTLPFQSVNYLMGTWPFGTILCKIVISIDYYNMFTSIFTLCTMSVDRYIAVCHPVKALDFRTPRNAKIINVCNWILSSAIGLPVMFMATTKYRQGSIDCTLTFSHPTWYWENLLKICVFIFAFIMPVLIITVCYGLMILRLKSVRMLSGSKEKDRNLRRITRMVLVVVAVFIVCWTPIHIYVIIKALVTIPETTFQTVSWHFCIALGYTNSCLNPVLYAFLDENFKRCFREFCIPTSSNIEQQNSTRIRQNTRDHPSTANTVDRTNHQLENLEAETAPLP

Take `CN1C2CCCC1C(c1cncc(-c3cccnc3[18F])c1)C2` (stereo not given): the logP in data set [1] is 2.47. The pKa in [2] came out at 9.18. For the same molecule, the Ki in data set [3] worked out at 0.06 nM.
For the molecule `CCN(CC)C[C@@H]1CN(C(=O)COC)CCN1C(=O)Cc1ccc(C)c(C)c1`, the Ki in data set [4] turned out to be 0.28 nM.
On to `CN1CC=C[C@H]1COc1cccnc1[18F]`, for which, in [1], the lipophilicity (logP) worked out at 1.21. In data set [5], the logD stood at 0.3. In data set [2], this molecule showed a pKa of 8.09. Further, in data set [3], the Ki came to 0.5 nM.
In the case of `CCOC(=O)c1ncn2c1CN([11CH3])C(=O)c1cc(N=[N+]=[N-])ccc1-2`, in data set [2], the pKa came out at 8.45. The Ki in [6] was ~0.5 nM.
For the molecule `Oc1ccc2c(c1)CCN(CCCCc1ccccc1[18F])C[C@@H]2O`, the logP in data set [1] was 4.03. The logD in data set [5] turned out to be 2.07; in data set [7], 2.2. The molecule further registered a pKa in data set [2] of 8.68.
`[11CH3]Oc1cccc(-c2c(O)c3c(I)cc(Cl)cc3[nH]c2=O)c1`: the logP in [1] was found to be 3.81. In addition, in data set [5], the logD was found to be 1.91. In addition, the pKa in [2] is 8.83. The Ki in data set [8] was 10300 nM.
For the molecule `C[C@H](c1ccccc1)n1cncc1C(=O)OCC[18F]`, the logP in data set [1] is reported as 1.69. For the same molecule, the logD in data set [5] is 2.99. This molecule displayed a pKa in [2] of 3.83. Also, the Ratio in data set [9] turned out to be 14.48.
With `CCOC(=O)c1ncn2c1CN(C)C(=O)c1cc(N=[N+]=[N-])ccc1-2` [Ro-154513], the Ki came to 7 nM in data set [10], 7 nM in data set [11], 7 nM in data set [12] and 0.7 nM in data set [13].
In data set [1], `COC(=O)c1cncn1[C@H](C)c1ccc([18F])cc1` displayed a logP of 1.65. Besides, the logD in [5] came out at 2.82. Moreover, the pKa in [2] was 4.08. Besides, the Drug uptake in data set [14] is 66%; in data set [15], 39%. In data set [16], the remaining at 10 min was 13%. The remaining at 0.5 h in [17] was 8%. The remaining at 1 h in [18] was determined as 2%.
Turning to `[18F]CCCc1cncc(OC[C@@H]2CCN2)c1`, the logP in [1] stood at 0.86. In addition, the log distribution coefficient (logD) in [5] is -1.44. The pKa in data set [2] amounted to 9.09. For the same molecule, in [3], the Ki was determined as 0.67 nM.
For `CCN(CC)C[C@@H]1CN(C(=O)CO[11CH3])CCN1C(=O)Cc1ccc(C)c(C)c1`, in data set [1], the logP came to 1.67. Also, the pKa in data set [2] was 8.6. Besides, in data set [4], the inhibition constant Ki is 0.28 nM.
Turning to `CCN(CCF)C[C@@H]1CN(C(=O)COC)CCN1C(=O)Cc1ccc(C)c(C)c1`, in data set [4], the Ki stood at 0.43 nM. Further, the Ratio Ki in [19] came out at 17; in data set [20] it was 323.
As for `CCCc1cc(Cl)cc2[nH]c(=O)c(-c3cccc(O[11CH3])c3)c(O)c12`, the lipophilicity (logP) in data set [1] was found to be 3.78. The pKa in data set [2] stood at 9.06. Also, in [8], the Ki was 7200 nM.
Take `C[C@@H](C[11CH3])CCc1cnc(Cl)c(/C=C/c2ccncc2)c1`: in [1], the logP stood at 4.94. The Ki in data set [3] is 0.077 nM.
As to `CN1C2CCCC1C(c1cncc(-c3cccc([18F])n3)c1)C2` (stereo not given), the logP in [1] amounted to 2.89. The molecule further displayed a pKa in data set [2] of 9.24. Moreover, the Ki in data set [3] stood at 0.95 nM.
For the molecule `N[11C](=O)c1ccc(Oc2ccc(CN3CCC[C@H]3c3cccnc3)cc2)c(Cl)c1`, in data set [1], the logP was determined as 3.67. The same molecule yielded a log distribution coefficient (logD) in [5] of 2.71. This molecule yielded a pKa in data set [2] of 8.45. In addition, the Ki stood at 25.8 nM on Mu-type opioid receptor and 0.72 nM in [4]. In addition, the Kd in [21] was determined as 0.028 nM.
As to `[18F]CCCc1cncc(OC[C@@H]2C=CCN2)c1`, in [1], the logP is 1.42. Besides, the logD in data set [5] amounted to 0.71. In data set [2], the pKa turned out to be 8.21. Also, in data set [3], the Ki turned out to be 0.36 nM.
The molecule `CN([11CH3])[C@]1(c2ccccc2Cl)CCCCC1=O` registered a logP in data set [1] of 2.84. Further, the logD in data set [5] came to 2.93. Further, the half-life in data set [22] was > 15 min. Also, the figures for the Kd in data set [23], in [24] and in [25] were 7000 nM, 4000 nM and 14000 nM, respectively. The molecule further displayed a pKa in data set [2] of 6.92.
In the case of `N[C@H](C[C@H]1CC(C(=O)O)=NN1c1ccc(CCCF)cc1)C(=O)O`, in [8], the Ki came to 52 nM.
